From ChEMBL document CHEMBL4130368, “Thienopyrimidine derivatives exert their anticancer efficacy via apoptosis induction, oxidative stress and mitotic catastrophe” (Eur J Med Chem, 2017)
The source made the active and inactive calls. No cut-off for these calls is given here.

Assays:
[1] = Selectivity index, ratio of IC50 for CHO cells to IC50 for human GBM10 cells; assay type: toxicity; settings: Chinese hamster (CHO cells), CHO cells versus GBM10 cells, read-out: Ratio IC50
A2780 [2] = assay: Induction of cellular oxidative stress in human A2780 cells assessed as increase in ROS levels at 0.5 to 4 uM after 48 hrs by DCFDA dye-based fluorescence microscopic method; assay type: functional, cell-based
A2780 [3] = assay: Cell cycle arrest in human A2780 cells assessed as accumulation at G2 phase at 1 uM measured after overnight incubation by propidium iodide staining-based flow cytometry (reference value: 24.9%); assay type: functional
HCT-116 [4] = assay: Induction of apoptosis in human HCT116 cells assessed as necrotic cells at 2 uM measured after overnight incubation by mitotracker red/alexa fluor-488 Annexin V staining-based flow cytometry (reference value: 2.67%); assay type: functional
HCT-116 [5] = assay: Induction of apoptosis in human HCT116 cells assessed as viable cells at 1 uM measured after overnight incubation by mitotracker red/alexa fluor-488 Annexin V staining-based flow cytometry (reference value: 89%); assay type: functional; settings: read-out: Activity
A2780 [6] = assay: Induction of apoptosis in human A2780 cells assessed as viable cells at 1 uM measured after overnight incubation by mitotracker red/alexa fluor-488 Annexin V staining-based flow cytometry (reference value: 78.1%); assay type: functional; settings: read-out: Activity
A2780 [7] = assay: Induction of apoptosis in human A2780 cells assessed as condensation of nuclei at 0.5 to 2 uM measured after overnight incubation by DAPI-staining based microscopy; assay type: functional, cell-based
HCT-116 [8] = assay: Induction of morphological changes in human HCT116 cells at 0.1 to 3 uM after 68 hrs by microscopic method; assay type: functional, cell-based
HCT-116 [9] = assay: Antiproliferative activity against bax deficient human HCT116 cells assessed after 72 hrs by MTT assay; assay type: functional, cell-based; settings: HCT-116, 72 h
A2780 [10] = assay: Cell cycle arrest in human A2780 cells assessed as accumulation at S phase at 2 uM measured after overnight incubation by propidium iodide staining-based flow cytometry (reference value: 15.2%); assay type: functional
A2780 [11] = assay: Induction of apoptosis in human A2780 cells assessed as viable cells at 2 uM measured after overnight incubation by mitotracker red/alexa fluor-488 Annexin V staining-based flow cytometry (reference value: 78.1%); assay type: functional; settings: read-out: Activity
A2780 [12] = assay: Inhibition of colony formation in human A2780 cells at 1 to 2 uM after 24 hrs by crystal violet dye based assay; assay type: functional, cell-based
HCT-116 [13] = assay: Antiproliferative activity against human HCT116 cells after 72 hrs by MTT assay; assay type: functional, cell-based; settings: HCT-116, 72 h
[14] = Selectivity index, ratio of IC50 for CHO cells to IC50 for human HCT116 cells; assay type: toxicity; settings: Chinese hamster (CHO cells), CHO cells versus HCT116 cells, read-out: Ratio IC50
A2780 [15] = assay: Cell cycle arrest in human A2780 cells assessed as accumulation at G2 phase at 2 uM measured after overnight incubation by propidium iodide staining-based flow cytometry (reference value: 24.9%); assay type: functional
HCT-116 [16] = assay: Cell cycle arrest in human HCT116 cells assessed as accumulation at subG1 phase at 1 uM measured after overnight incubation by propidium iodide staining-based flow cytometry (reference value: 0.154%); assay type: functional
2008 [17] = assay: Induction of apoptosis in human OV2008 cells assessed as viable cells at 2 uM measured after overnight incubation by mitotracker red/alexa fluor-488 Annexin V staining-based flow cytometry (reference value: 80.5%); assay type: functional; settings: read-out: Activity
CHO = assay: Cytotoxicity against CHO cells assessed as reduction in cell survival after 72 hrs by MTT assay; assay type: ADME, cell-based; settings: Cricetulus griseus
A2780 [18] = assay: Cell cycle arrest in human A2780 cells assessed as accumulation at G1 phase at 2 uM measured after overnight incubation by propidium iodide staining-based flow cytometry (reference value: 51.1%); assay type: functional
2008 [19] = assay: Cell cycle arrest in human OV2008 cells assessed as accumulation at G2 phase at 1 uM measured after overnight incubation by propidium iodide staining-based flow cytometry (reference value: 26.9%); assay type: functional
HCT-116 [20] = assay: Induction of apoptosis in human HCT116 cells assessed as cell shrinkage at 0.5 to 2 uM measured after overnight incubation by DAPI-staining based microscopy; assay type: functional
2008 [21] = assay: Cell cycle arrest in human OV2008 cells assessed as accumulation at subG1 phase at 1 uM measured after overnight incubation by propidium iodide staining-based flow cytometry (reference value: 2.64%); assay type: functional
HCT-116 [22] = assay: Cell cycle arrest in human HCT116 cells assessed as accumulation at […] at 2 uM measured after overnight incubation by propidium iodide staining-based flow cytometry (reference value: 9.70%); assay type: functional
HCT-116 [23] = assay: Cell cycle arrest in human HCT116 cells assessed as accumulation at G1 phase at 2 uM measured after overnight incubation by propidium iodide staining-based flow cytometry (reference value: 63.5%); assay type: functional
[24] = Antiproliferative activity against human GBM10 cells after 72 hrs by MTT assay; assay type: functional, cell-based; settings: GBM10, 72 h
HCT-116 [25] = assay: Induction of cellular oxidative stress in human HCT116 cells assessed as increase in ROS levels at 0.5 to 4 uM after 48 hrs by DCFDA dye-based fluorescence microscopic method; assay type: functional, cell-based
2008 [26] = assay: Induction of apoptosis in human OV2008 cells assessed as necrotic cells at 2 uM measured after overnight incubation by mitotracker red/alexa fluor-488 Annexin V staining-based flow cytometry (reference value: 6.31%); assay type: functional
A2780 [27] = assay: Induction of apoptosis in human A2780 cells assessed as late apoptotic cells at 2 uM measured after overnight incubation by mitotracker red/alexa fluor-488 Annexin V staining-based flow cytometry (reference value: 0.015%); assay type: functional
2008 [28] = assay: Induction of apoptosis in human OV2008 cells assessed as viable cells at 1 uM measured after overnight incubation by mitotracker red/alexa fluor-488 Annexin V staining-based flow cytometry (reference value: 80.5%); assay type: functional; settings: read-out: Activity
HCT-116 [29] = assay: Induction of apoptosis in human HCT116 cells assessed as viable cells at 2 uM measured after overnight incubation by mitotracker red/alexa fluor-488 Annexin V staining-based flow cytometry (reference value: 89%); assay type: functional; settings: read-out: Activity
HCT-116 [30] = assay: Cell cycle arrest in human HCT116 cells assessed as accumulation at G1 phase at 1 uM measured after overnight incubation by propidium iodide staining-based flow cytometry (reference value: 63.5%); assay type: functional
2008 [31] = assay: Induction of apoptosis in human OV2008 cells assessed as condensation of nuclei at 0.5 to 2 uM measured after overnight incubation by DAPI-staining based microscopy; assay type: functional, cell-based
A2780 [32] = assay: Induction of apoptosis in human A2780 cells assessed as necrotic cells at 1 uM measured after overnight incubation by mitotracker red/alexa fluor-488 Annexin V staining-based flow cytometry (reference value: 9.94%); assay type: functional
HCT-116 [33] = assay: Induction of apoptosis in human HCT116 cells assessed as condensation of nuclei at 0.5 to 2 uM measured after overnight incubation by DAPI-staining based microscopy; assay type: functional, cell-based
[34] = Selectivity index, ratio of IC50 for CHO cells to IC50 for human HCT15 cells; assay type: toxicity; settings: Chinese hamster (CHO cells), CHO cells versus HCT15 cells, read-out: Ratio IC50
HCT-116 [35] = assay: Induction of mitotic catastrophe in human HCT116 cells assessed as formation of large with flattened cells at 0.5 to 2 uM measured after overnight incubation by DAPI-staining based microscopy; assay type: functional, cell-based

COc1ccc(-c2nc(O)c3c4c(sc3n2)CCCC4)cc1
selectivity ratio [1]: 17 to 28
Activity (A2780 [2]): Active
Activity (A2780 [3]): 57.8%
Activity (HCT-116 [4]): 3.04%
viability at 1 µM (HCT-116 [5]): 87%
viability at 1 µM (A2780 [6]): 73.8%
Activity (A2780 [7]): Active
Activity (HCT-116 [8]): Active
IC50 (HCT-116 [9]): 1200 nM
Activity (A2780 [10]): 9.02%
viability at 2 µM (A2780 [11]): 42.9%
inhibition (A2780 [12]): Dose-dependent effect
IC50 (HCT-116 [13]): 600 nM
selectivity ratio [14]: 17 to 28
Activity (A2780 [15]): 63.5%
Activity (HCT-116 [16]): 0.087%
viability at 2 µM 2008 [17]: 73.9%
IC50 (CHO): 14 µM
Activity (A2780 [18]): 15.5%
Activity 2008 [19]: 44.6%
Activity (HCT-116 [20]): Active
Activity 2008 [21]: 4.17%
Activity (HCT-116 [22]): 10.6%
Activity (HCT-116 [23]): 29.5%
IC50 [24]: 800 nM
Activity (HCT-116 [25]): Active
Activity 2008 [26]: 3.79%
Activity (A2780 [27]): 0.051%
viability at 1 µM 2008 [28]: 75.1%
viability at 2 µM (HCT-116 [29]): 71.1%
Activity (HCT-116 [30]): 37.5%
Activity 2008 [31]: Active
Activity (A2780 [32]): 0.421%
Activity (HCT-116 [33]): Active
selectivity ratio [34]: 17 to 28
Activity (HCT-116 [35]): Active
